Experimental data reported in patent US20230190616A1, “COMPOUNDS USEFUL FOR THE TREATMENT AND/OR CARE OF THE SKIN, HAIR, NAILS AND/OR MUCOUS MEMBRANES” (LUBRIZOL ADVANCED MATERIALS, INC., priority 2018, published 2023).

Assays:
Assay type in all cases: cell-based
[1] = test system: Musclebind like protein 1 (MBNL1) in human skeletal muscle cells (hSkMc); assay: Quantification of Musclebind like protein 1 in human skeletal muscle cells by TR-FRET; conditions: 0.5 mg/ml, hSkMc; for % MBNL1 vs basal level: 48 hours, normalized to total protein
Experimental: In vitro quantification of Musclebind like protein 1 in human skeletal muscle cells by Time resolved fluorescence resonance energy transfer.
MBNL1 induction by the peptides of the invention is evaluated by a Time resolved fluorescence resonance energy transfer (TR-FRET) assay. The aim of this study is to investigate the capacity of peptide candidates to increase MBNL-1 in human skeletal muscle cells (hSkMc).
hSkMc (Innoprot) are seeded in 12-well plates at a density of 1.5×10^4 cells/well in Skeletal Muscle Cell Growth Medium (Promocell). After 72 hours incubation, medium is removed and replaced with Skeletal Muscle Cell Differentiation Medium (Promocell). 48 hours after beginning cell differentiation, fresh differentiation medium with 0.5 mg/ml of test items is added. Treatment is continued for 48 hours and non-treated cells are used as basal control. After 48 hours of treatment, cell medium is removed and cell lysis buffer is added to wells. Immediately, plates are kept at -80° C. in order to improve protein extraction during the defrosting process. After 72 hours, cells are lysed by shaking the plates in an orbital rotor at room temperature for 45 minutes. Next, cell lysates are collected and assayed to quantify the level of MBNL-1 protein and total protein concentration.
MBNL-1 protein levels measurement is performed with Human MBNL1 Assay Kit (Cisbio) according to the manufacturer’s protocol. Briefly, the kit is used to perform a TR-FRET for MBNL1 quantification. The protein is detected with the antibodies provided in the kit and quantified by a fluorescence measurement. The quantification is carried out by using a microplate reader (ClarioStar™™™, BMG) set to 665 nm and 620 nm.
Total protein concentration of cell lysate is determined by using Pierce BCA Protein Assay Kit (Thermo Scientific) according to manufacturer’s protocol. In brief, after adding Working Reagent to the samples and the standards, the samples are incubated. Afterwards, color change is measured with an absorbance microplate reader (Clariostar™, BMG) at 562 nm. The total protein amount is used to normalize the level of MBNL1 protein concentration obtained by the TR-FRET test in the samples.

[2] = test system: human muscular skeletal cells (hSKMC); assay: Alleviation of TNF-α induced muscle mass loss in human skeletal muscle cells by immunofluorescence; conditions: for % Loss (muscle mass loss): 0.01 mg/ml peptide after 20 ng/ml TNFα, normalized to mass loss control (BC + TNF) = 100; for Mass loss compared to basal control treated with TNF-α (in words): 0.01 mg/ml, hSKMC
Experimental: In vitro alleviation of the effects of muscle mass loss induced in human skeletal muscle cells by immunofluorescence.
Muscle mass loss correction by the peptides of the invention is evaluated by an immunofluorescence assay. The aim of this study is to investigate the capacity of peptide candidates to alleviate muscular mass loss after treatment with TNF-α in human muscular skeletal cells (hSKMC), i.e., to reverse the adverse effects induced by TNF-α (a model of muscular ageing). Myosin heavy chain (MHyC) is used as a morphologic marker of differentiated myotubes allowing the measurement of their diameters, and this can be used to ascertain a degree of mass loss. Tumor necrosis factor α (TNF-α) has been described in the literature as a muscle mass loss inductor.
hSKMC (Tebu-Bio) are seeded in 96-well plates at a density of 1.5×10^4 cells/well in Skeletal Muscle Cell Growth Medium (Promocell). After 24 hours incubation, the medium is replaced with Skeletal Muscle Cell Differentiation Medium (Promocell) and cells are differentiated for 6 days. After this, muscular cells mass loss is induced by adding fresh differentiation medium with 20 ng/ml TNFα (Sigma). Non-TNFα treated cells are used as a basal control (BC). After 24 hours of mass loss induction, the culture medium is replaced in some of the well plates with fresh differentiation medium comprising 0.01 mg/ml of the peptides of the invention. TNFα treated cells which are not treated with peptides are used as a mass loss control (BC + TNF) and cells which are treated with neither the peptides of the invention nor TNFα are used as a basal mass loss control (BC). Treatment is renewed 24 hours later. After 24 hours after the second treatment, immunofluorescence is determined. Cells are fixed 15 minutes with 4% Paraformaldehyde (Sigma), permeated 15 minutes with 1% Triton X-100 (Sigma) and then blocked with 5% Bovine Serum Albumin (Sigma). Next, primary antibody Anti-MHyC mouse (1:100, Vitro) is added and incubated overnight at 4° C. After that, secondary antibody Alexa Fluor 488 goat anti-mouse IgG (1:250, Life Technologies) is added and incubated for 1 hour. Finally, myotube diameters are determined by imaging MHyC staining by Operetta™ (Perkin Elmer). Percentage of mass loss is automatically calculated with Harmony™ (Perkin Elmer) software by classifying myotubes according to their diameter using a mass loss threshold of 20 µm. The results are normalized to the mass loss control (BC + TNF).

[3] = test system: human subcutaneous pre-adipocytes; assay: Lipid accumulation in coculture of young and old human subcutaneous pre-adipocytes (Adipored staining); conditions: 0.01 mg/ml; for %LA (percentage of lipid accumulation): 12 days, coculture of donor cells, respect to coculture control = 100
Description: In vitro effect of PEP-22 and PEP-23 in lipid accumulation in human subcutaneous pre-adipocytes.
Measurement of lipid accumulation in a coculture of young and old adipose cells indirectly evaluates the inhibition of SASP. A pool of old adipose cells has a higher number of senescent cells. When cocultured with young cells, lipid accumulation observed is below the theoretically expected levels due to a senescence induction effect of SASP from old to young adipocytes.
Induction of lipid accumulation by the peptides of the invention is evaluated by lipid fluorescent staining with Adipored® Assay Reagent. The aim of this study is to investigate the capacity of peptide candidates to induce lipid accumulation in human subcutaneous adipocytes, and therefore prevent adipocytes senescence.
Human subcutaneous pre-adipocytes (donors, Cell applications) cells are cocultured in 96-well plates at a density of 4×10^3 cells/well each age in Human Preadipocyte Growth Medium (Sigma). Monoculture of each age are seeded at a density of 8×10^3 cells/well as age lipid accumulation controls. After 24 hours incubation, differentiation of pre-adipocytes into adipocytes is induced by changing medium to fresh Human Preadipocyte Differentiation Medium (Promocell). At the same time, cocultured cells are treated with 0.01 mg/ml of peptides of the invention. Non-treated cocultured cells are used as basal control and monocultured young and old cells as age lipid accumulation controls. After 12 days of treatment and differentiation, cells are stained with Adipored® Assay Reagent (Lonza) following the manufacturer’s instructions. In brief, the plate is washed with Phosphate Buffer Saline (Sigma) and then Adipored® reagent and Hoechst 33342 (Life technologies) are added and incubated for 15 minutes at 37° C. Finally, fluorescence intensity and nuclei number are measured by Operetta (Perkin Elmer). Fluorescence is normalized by cell nuclei and results are represented respect to cocultured basal control. Abbreviations: % LA = Percentage of lipid accumulation; CC = Coculture control; YC = young control; OC = old control.

Ac-L-Arg-L-Arg-D-Gln-L-Met-L-Glu-L-Glu-NH2 [PEP-22]
% MBNL1 vs basal level [1]: 141.4%
MBNL1 levels compared to the basal control and to Argireline (in words) [1]: increase MBNL1 levels
% Loss (muscle mass loss) [2]: 76.2%
Mass loss compared to basal control treated with TNF-α (in words) [2]: alleviate mass loss
Lipid accumulation in adipocytes compared to coculture basal control (in words) [3]: increase lipid accumulation
%LA (percentage of lipid accumulation) [3]: 133.9%

Ac-L-Arg-L-Arg-L-Gln-D-Met-L-Glu-L-Glu-NH2 [PEP-23]
% MBNL1 vs basal level [1]: 142.3%
MBNL1 levels compared to the basal control and to Argireline (in words) [1]: increase MBNL1 levels
% Loss (muscle mass loss) [2]: 71.9%
Mass loss compared to basal control treated with TNF-α (in words) [2]: alleviate mass loss
Lipid accumulation in adipocytes compared to coculture basal control (in words) [3]: increase lipid accumulation
%LA (percentage of lipid accumulation) [3]: 159.9%
